# Results: patent publication EP0252983B1, “SALTS OF N-(VINYLOXIETHYL)DITHIOCARBAMIC ACID, METHOD OF OBTAINING THEREOF AND […] ON THEM” (priority 1985, dated 1987)
# Like-named read-outs stand apart in the source and are kept apart here.
# How the values were obtained:
# [1] = tested on: Acremonium charticola; assay: Mycelial growth inhibition on agar (contact activity); type: cell-based; details: Acremonium charticola, 120 h, Würzeagar, read-out: Myzelhemmung in %
# [2] = tested on: Acremonium cowum; assay: as above; type: cell-based; details: 120 h, Würzeagar, read-out: Myzelhemmung in %
# [3] = tested on: Cladosporium cladosporioides; assay: as above; type: cell-based; details: Cladosporium cladosporioides, 120 h, Würzeagar, read-out: Myzelhemmung in %
# [4] = tested on: Cladosporium resinae; assay: as above; type: cell-based; details: Amorphotheca resinae, 120 h, Würzeagar, read-out: Myzelhemmung in %
# [5] = tested on: Geotrichum candidum Link; assay: as above; type: cell-based; details: Würzeagar
# [6] = tested on: Oidium Sp.; assay: as above; type: cell-based; details: Würzeagar
# [7] = tested on: Penicillium charlesii; assay: as above; type: cell-based; details: Penicillium charlesii, 120 h, Würzeagar, read-out: Myzelhemmung in %
# [8] = tested on: Penicillium chrysogenum; assay: as above; type: cell-based; details: Würzeagar
# [9] = tested on: Walrotiela subiculesa; assay: as above; type: cell-based; details: 120 h, Würzeagar, read-out: Myzelhemmung in %
# [10] = tested on: Aspergillus niger; assay: as above; type: cell-based; details: Aspergillus niger, 120 h; for inhibition of growth at 0.003 %: Wirkstoffkonzentration 0,003 %
# [11] = tested on: Helminthosporium sativum; assay: Barley seed dressing against root rot (helminthosporiosis); type: in vivo; details: Aufwandmenge von 1 g/kg
# Protocol: Die Aktivität der Verbindung gegen Wurzelfäule (Helminthosporiose) der Gerste wurde unter Laborbedingungen untersucht. Gerstensamen, infiziert mit einer 7 Tage alten Pizkultur Helminthosporium sativum, wurden durch Präparaten ausgehend von 1 g Präparat (bezogen auf den Wirkstoff) je 1 kg Samen nach einem halbtrockenen Verfahren gebeizt, in Aufzuchträume mit befeuchtetem Sand gesät und innerhalb von 11 bis 14 Tagen bei einer zwischen 20 und 22 °C gehalten. Am 14 Tag schätzte man die Keimfähigkeit von Gerstensamen ein und ermittelte die Quote von durch Helminthosporiose befallenen Pflanzen. Die Prüfergebnisse sind in der Tabelle 4 dargestellt.
# [12] = tested on: Larven von Fichtenböcken; assay: Insecticidal activity, topical application to larvae; type: in vivo, Fichtenböcke; details: 10%ige Lösung
# Description: Die hohe insektizide Aktivität von Kalium-N-(vinyloxyathyl)dithiocarbamat und Zink-bis-(N-vinyloxyathyl- dithiocarbamat) wurde in Versuchen an Larven von Fichtenböcken nachgewiesen. Geprüft wurden die 10%igen wäßrigen (oder alkoholischen) Lösungen, welche auf die Kopfbrust von Larven aufgebracht wurden. In Versuchen standen je 20 Larven zur Verfügung. Die Versuche wurden dreimal wiederholt. Die Mortalität wurde nach 1, 24 und 48 Stunden ermittelt. Die insektizide Aktivität der erfindungsgemäßen Stoffe ist bedeutend höher als die von Chlorophos.
# Die Prüfungen auf insektizide Aktivität werden an Larven von Fichtenböcken durchgeführt. Geprüft werden eine 10%ige wäßrige Lösung von Kalium-N-(vinyloxyäthyl)dithiocarbamat und eine 10%ige alkoholische Lösung von Zink-bis-N-(vinyloxyathyldithiocarbamat). In jedem Versuch stehen je 20 Larven zur Verfügung. Die Mortalität wird nach 1, 24 und 48 Stunden ermittelt. Die zu prüfenden Lösungen werden auf die Kopfbrust von Larven aufgebracht.
# [13] = Acute toxicity (LD50) in mice; type: in vivo, weißen Mäusen; details: mouse, in vivo, po; perorale Applikation an weißen Mäusen; read-out: LD50
# [14] = tested on: Wurzelschimmelkomplex von Gewächshausgurken; assay: Greenhouse trial against cucumber root mould complex (200 m^2); type: in vivo
# Description: Kalium-N-(vinyloxyäthyl)dithiocarbamat wurde gegen Wurzelschimmelkomplex von Gewächshausgurken auf einer Fläche von 200 m^2 und 1 ha geprüft. Die auf einer 200 m^2 großen Fläche durchgeführten Prüfungen haben gezeigt, daß Kalium-N-(vinyloxyäthyl)dithiocarbamat die 100%ige Unterdrückung von Erregern der Pythium-Fäule und der begleitenden Gurkenwurzelschimmeln bewirkt. Der Ernteertrag steigt dabei durch Bodenbehandlung um 4,2 kg/m^2 gegenüber Kontrolle (ohne Wirkstoffgabe ist der Ertrag 10 kg/m^2 und um 1,6 kg/m^2 gegenüber Fundazol an.
compound,measurement,setting,value
C=COCCNC(=S)S [Kalium-N-(vinyloxyäthyl)dithiocarbamat],inhibition of growth at 0.003 %,"[1]; Präparatkonzentration 0,003 %",100%
same,inhibition of growth at 0.006 %,"[1]; Präparatkonzentration 0,006 %",100%
same,inhibition of growth at 0.012 %,"[1]; Präparatkonzentration 0,012 %",100%
same,inhibition of growth at 0.0015 %,"[2]; Präparatkonzentration 0,0015 %",100%
same,inhibition of growth at 0.012 %,"[2]; Präparatkonzentration 0,012 %",100%
same,inhibition of growth at 0.0015 %,"[3]; Präparatkonzentration 0,0015 %",100%
same,inhibition of growth at 0.003 %,"[3]; Präparatkonzentration 0,003 %",100%
same,inhibition of growth at 0.012 %,"[3]; Präparatkonzentration 0,012 %",100%
same,inhibition of growth at 0.0015 %,"[4]; Präparatkonzentration 0,0015 %",100%
same,inhibition of growth at 0.003 %,"[4]; Präparatkonzentration 0,003 %",100%
same,inhibition of growth at 0.006 %,"[4]; Präparatkonzentration 0,006 %",100%
same,inhibition of growth at 0.012 %,"[4]; Präparatkonzentration 0,012 %",100%
same,inhibition of growth at 0.012 %,"[5]; Geotrichum candidum, 120 h, Präparatkonzentration 0,012 %, read-out: Myzelhemmung in %",100%
same,Myzelhemmung in %,"[5]; Präparatkonzentration 0,0015 %",30%
same,Myzelhemmung in %,"[5]; Präparatkonzentration 0,003 %",100%
same,Myzelhemmung in %,"[5]; Präparatkonzentration 0,006 %",100%
same,inhibition of growth at 0.003 %,"[6]; 120 h, Präparatkonzentration 0,003 %, read-out: Myzelhemmung in %",100%
same,inhibition of growth at 0.006 %,"[6]; 120 h, Präparatkonzentration 0,006 %, read-out: Myzelhemmung in %",100%
same,inhibition of growth at 0.012 %,"[6]; 120 h, Präparatkonzentration 0,012 %, read-out: Myzelhemmung in %",100%
same,Myzelhemmung in %,"[6]; Präparatkonzentration 0,0015 %",96%
same,inhibition of growth at 0.0015 %,"[7]; Präparatkonzentration 0,0015 %",30%
same,inhibition of growth at 0.003 %,"[7]; Präparatkonzentration 0,003 %",55%
same,inhibition of growth at 0.006 %,"[7]; Präparatkonzentration 0,006 %",90%
same,inhibition of growth at 0.012 %,"[7]; Präparatkonzentration 0,012 %",100%
same,inhibition of growth at 0.003 %,"[8]; Penicillium chrysogenum, 120 h, Präparatkonzentration 0,003 %, read-out: Myzelhemmung in %",26%
same,inhibition of growth at 0.006 %,"[8]; Penicillium chrysogenum, 120 h, Präparatkonzentration 0,006 %, read-out: Myzelhemmung in %",93%
same,inhibition of growth at 0.012 %,"[8]; Penicillium chrysogenum, 120 h, Präparatkonzentration 0,012 %, read-out: Myzelhemmung in %",100%
same,Myzelhemmung in %,"[8]; Präparatkonzentration 0,0015 %",15%
same,inhibition of growth at 0.0015 %,"[9]; Präparatkonzentration 0,0015 %",100%
same,inhibition of growth at 0.003 %,"[9]; Präparatkonzentration 0,003 %",100%
same,inhibition of growth at 0.006 %,"[9]; Präparatkonzentration 0,006 %",100%
same,inhibition of growth at 0.012 %,"[9]; Präparatkonzentration 0,012 %",100%
same,inhibition of growth at 0.01 %,"[10]; Wirkstoffkonzentration 0,01 %, Kartoffel-Glukose-Nährmedium, read-out: Myzelhemmung in %",100%
same,inhibition of growth at 0.003 %,"[10]; Kartoffel-Glukose-Nährmedium, read-out: Myzelhemmung in %",100%
same,inhibition of growth at 0.003 %,"[10]; Tabelle 3, read-out: Mycelhemmung, in %",100%
same,Wirksamkeit als Beizmittel gegenüber Vergleichsmuster (TMTD und Polykarbazin),[11],zweimal wirksamer
same,Mortalität von Larven der Fichtenböcke,[12]; Wirkungsdauer 1 Stunde,20%
same,Mortalität von Larven der Fichtenböcke,[12]; Wirkungsdauer 24 Stunden,100%
same,Mortalität von Larven der Fichtenböcke,[12]; Wirkungsdauer 48 Stunden,100%
same,LD50,[13],1400 ± 350 mg/kg
same,Unterdrückung von Erregern der Pythium-Fäule und der begleitenden Gurkenwurzelschimmeln,[14]; 200 m^2 große Fläche,100%
same,Ernteertrag steigt gegenüber Fundazol,"[14]; Bodenbehandlung, 200 m^2","1,6 kg/m^2"
same,Ernteertrag steigt gegenüber Kontrolle,"[14]; Bodenbehandlung, 200 m^2, Kontrolle 10 kg/m^2","4,2 kg/m^2"
